Results taken from publication PMC2243256 (Applied Microbiology and Biotechnology, 2008).

Biological target: T1, PuORh (putrescine oxidase) (Rhodococcus erythropolis, UniProt B0F9F6)
T1 sequence (B0F9F6 1-453): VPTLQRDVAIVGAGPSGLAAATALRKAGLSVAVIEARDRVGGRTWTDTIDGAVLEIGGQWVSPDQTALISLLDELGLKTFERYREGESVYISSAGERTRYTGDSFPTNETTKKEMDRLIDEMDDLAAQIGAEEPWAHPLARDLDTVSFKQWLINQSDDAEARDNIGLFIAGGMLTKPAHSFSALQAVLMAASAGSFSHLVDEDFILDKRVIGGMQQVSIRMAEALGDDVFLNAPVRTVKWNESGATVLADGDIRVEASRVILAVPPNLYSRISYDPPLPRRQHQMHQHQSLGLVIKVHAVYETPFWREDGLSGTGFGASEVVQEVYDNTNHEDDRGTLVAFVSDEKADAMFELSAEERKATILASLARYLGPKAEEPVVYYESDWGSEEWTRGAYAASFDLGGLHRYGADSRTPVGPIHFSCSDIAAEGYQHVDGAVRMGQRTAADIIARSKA
Experiment: absorbance spectrum, release by trichloroacetic acid and heat
Assay type: binding
Conditions: non-covalent; pH 8.0, 25°C for spectra

Cc1cc2nc3c(=O)[nH]c(=O)nc-3n(C[C@H](O)[C@H](O)[C@H](O)COP(=O)(O)OP(=O)(O)OC[C@H]3O[C@@H](n4cnc5c(N)ncnc54)[C@H](O)[C@@H]3O)c2cc1C [FAD]
absorbance spectrum, release by trichloroacetic acid and heat: the FAD cofactor in PuORh, like in PuOMr, is not covalently bound
